Test results: paper PMC10478803, “Contributions of the N-terminal flanking residues of an antigenic peptide from the Japanese cedar pollen allergen Cry j 1 to the T-cell activation by HLA-DP5” (International Immunology, 2023)
“Also recorded” adds a separate entry of the source.

Assays:
[1] = tested on: TCR(SU3–3)-TG40 and TCR(NM-4)-TG40 cells; assay: IL-2 production assay with HLA-DP5-expressing mDC1 cells; details: ELISA
Method: The DPA1-stable cells were established by the transduction of mouse antigen-presenting dendritic cell line 1 (mDC1) cells with a retrovirus containing pMXs-Puro/DPA1 and selection with puromycin (5 μg ml^−1). The DPA1-stable cells were subsequently transduced with pMXs-IB/DPB1 and selected with blasticidin (5 μg ml^−1), to obtain DPA1- and DPB1-stable cells. […] The cell-surface expression levels of HLA-DP were analyzed with an EPICS-XL (Beckman Coulter) or BD FACSCalibur (BD Biosciences) flow cytometer. HLA-DP was stained with anti-HLA-DP (B7/21) (Leinco Technologies), and mouse IgG3 (6A3) (MBL), as the isotype control, was stained with phycoerythrin-conjugated anti-mouse IgG3 (Santa Cruz Biotechnology). mDC1 cells with certain uniform levels of HLA-DP5 expression were collected and used for the quantitative assays of cell-surface peptide-display and IL-2 production.
Human CD4^+ TG40 cells were infected with the recombinant retroviruses by using retronectin (Takara Bio), according to the manufacturer’s instructions.
HLA-DP5-expressing mDC1 cells (5.0 × 10^3 cells per well) were cultured with NF-pCj1 for 3 h in 96-well flat-bottom plates.
T-cell response to NF-pCj1 presented by mDC1s.

[2] = molecular target: NF-pCj1–HLA-DP5^ec (HLA-DP5α protein and NF-pCj1–HLA-DP5β fusion protein, extracellular regions) (human | Cryptomeria japonica) (UniProt P18632); assay: SPR
[3] = molecular target: pCj1–HLA-DP5^ec (extracellular regions of HLA-DP5 with the nine-residue core peptide pCj1 fused to the β chain) (human | Cryptomeria japonica) (UniProt P18632); assay: SPR
[4] = tested on: CD4^+ T-cell clones (SU3–2, SU3–3, NM-4, and NM-7); assay: ^3H-thymidine incorporation assay of T-cell clone proliferation; assay type: cell-based, human; details: HLA-DP5-positive allogenic irradiated PBMCs as APCs
Method: (§1) Cloning of CD4^+ T cells was performed as described previously ([23]). A single, viable (7AAD^–), CD4^+, CFSE^dim cell was sorted into each well of a 96-well plate, which contained 100 μl of culture medium with feeder cells and cytokines, as described below. Irradiated (30 Gy) peptide-pulsed PBMCs (1.0 × 10^5) isolated from unrelated DPB1*05:01^+ donors were used as feeder cells in the cloning plates. Pooled human serum (5%) and IL-2 (100 U ml^−1) (Peprotech) were added at the indicated final concentrations to AIM-V medium (Life Technologies). Cells were fed every 7 days with fresh cytokine and peptide-pulsed PBMCs. Growing clones were identified by visual inspection, expanded into […] plates, and then tested for antigen specificity by ^3H-thymidine incorporation and cytokine production assays, using HLA-DP5 transfected K562 cells as antigen-presenting cells (APCs). […]
T-cell clones were tested for antigen specificity, using the ^3H-thymidine incorporation assay. […] The cells were then harvested and the incorporated radioactivity was measured by β-scintillation counting. […]
(§2) Fig. 4. […] HLA-restriction of T-cell clones was determined by addingvarious monoclonal antibodies (mAbs): anti-HLA-DR mAb (L243, BioLegend), anti-HLA-DQ mAb (SPV-L3, Abcam) or anti-HLA-DP mAb (B7/21, Abcam), at a final concentration of 10 μg ml^−1. […]

[5] = tested on: CD4^+ T-cell clones (SU3–2, SU3–3, NM-4, and NM-7); assay: Cytokine production by T-cell clones; assay type: cell-based, human; details: HLA-DP5-transfected K562 cells as APCs, 24 h, Bio-Plex
Method: as §1
Fig. 4. […] HLA-restriction of T-cell clones was determined by addingvarious monoclonal antibodies (mAbs): anti-HLA-DR mAb (L243, BioLegend), anti-HLA-DQ mAb (SPV-L3, Abcam) or anti-HLA-DP mAb (B7/21, Abcam), at a final concentration of 10 μg ml^−1. […] After 24 h, culture supernatants were collected and cytokine levels were measured using the Bio-Plex system (Bio-Rad). […] The T-cell surface activation marker CD137 of TCR(SU3–3)-TG40 and TCR(NM-4)-TG40 (GFP^+ 7AAD^− gated) was analyzed by flow cytometry. […]

[6] = tested on: TCR(SU3–2)-TG40, TCR(SU3–3)-TG40, TCR(NM-4)-TG40, and TCR(NM-7)-TG40 cells; assay: CD137^+ response of TCR-transfected TG40 cells; assay type: cell-based, mouse; details: in the presence of HLA-DP5-expressing cells
Method: as §1, with “(APCs). HLA-DP5-K562 cells were kindly provided by Dr H. Sugiyama, Osaka University. CD4^+ T-cell clones were stained with a PE-conjugated anti-human CD4 monoclonal antibody (mAb), and single cells were sorted into MicroAmp reaction tubes.” for “(APCs).”
as §2

CD4^+ T cells = assay: CFSE assay of CD4^+ T-cell proliferation in PBMCs of HLA-DP5^+ CP patients; assay type: cell-based, human; details: PBMCs from HLA-DP5^+ CP patients
Method: Peripheral blood was obtained from HLA-DP5^+ CP patients. Peripheral blood mononuclear cells (PBMCs) were isolated by a density gradient technique, using Ficoll-Paque PLUS. The research protocol for collecting and using PBMCs from allergic patients was approved by the Institutional Review Board of Kyushu University.
The CFSE assay was performed as described previously ([24]). Briefly, PBMCs (1.0 × 10^7 cells ml^−1 in PBS) were incubated for 10 min with 5 μM CFSE (Molecular Probes). Staining was terminated by adding PBS containing 5% pooled human serum, and after the cells were washed three times in PBS containing 1% pooled human serum, they were resuspended in culture medium (RPMI-1640 containing 5% pooled human serum) at 2.0 × 10^6 cells ml^−1. Stained cells (2.0 × 10^6 cells well^−1, 1 ml) were cultured in 24-well plates with medium alone, pCj1 (final concentration, 10 μg ml^−1), or NF-pCj1 (10 μg ml^−1). After 7 days, the cells treated with each antigen were pooled, washed in PBS, and stained with anti-human CD4-allophycocyanin (IgG1, clone RPA-T4, BioLegend) and 7-amino-actinomycin D (7-AAD) (BD Pharmingen). Antigen-specific, viable CD4^+ T cells were identified as 7AAD^−, CD4^+, CFSE^dim cells, and the proliferation levels of these antigen-specific CD4^+ T cells were examined in each experiment.

[7] = tested on: HLA-DP5 expressed on mDC1 cells; assay: Cell-surface peptide-display assay on HLA-DP5-expressing mDC1 cells; details: 3.5 h at 37°C
Method: (§3) The DPA1-stable cells were established by the transduction of mouse antigen-presenting dendritic cell line 1 (mDC1) cells with a retrovirus containing pMXs-Puro/DPA1 and selection with puromycin (5 μg ml^−1). The DPA1-stable cells were subsequently transduced with pMXs-IB/DPB1 and selected with blasticidin (5 μg ml^−1), to obtain DPA1- and DPB1-stable cells. […] The cell-surface expression levels of HLA-DP were analyzed with an EPICS-XL (Beckman Coulter) or BD FACSCalibur (BD Biosciences) flow cytometer. HLA-DP was stained with anti-HLA-DP (B7/21) (Leinco Technologies), and mouse IgG3 (6A3) (MBL), as the isotype control, was stained with phycoerythrin-conjugated anti-mouse IgG3 (Santa Cruz Biotechnology). mDC1 cells with certain uniform levels of HLA-DP5 expression were collected and used for the quantitative assays of cell-surface peptide-display and IL-2 production. […]
(§4) The parent mDC1 cells without HLA-DP5 expression (HLA-DP5[−]), and the HLA-DP5-expressing mDC1 cells, HLA-DP5[WT], were diluted with DMEM to 1.0 × 10^6 cells ml^−1. […] Thereafter, the cells were stained with Hoechst 33342 (diluted 1: 1000, at 4°C) (Thermo Fisher Scientific), and analyzed by a flow cytometer (BD LSRFortessa X-20, BD Biosciences) for the fluorescent intensity in the whole cell (TAMRA, excited at 561 nm) and that on the cell surface (Alexa647, excited at 640 nm). […]

[8] = tested on: mDC1 cells (mouse antigen-presenting dendritic cell line 1); assay: Uptake of TAMRA-labeled NF-pCj1 into mDC1 cells; details: TAMRA MFI, 0.25–4 μM, 3.5 h at 37°C, flow cytometry
Method: as §3, §4

[9] = molecular target: T1, Cry j 1 (pCj1) peptide on HLA-DPA1*02:02 / HLA-DPB1*05:01 (human); assay: cytokine release
T1 peptide: KVTVAFNQF

[10] = molecular target: T2, Cry j 1 (NF-pCj1, NF[WT]-pCj1) peptide on HLA-DPA1*02:02 / HLA-DPB1*05:01 (human); assay: cytokine release
T2 peptide: DKSMKVTVAFNQF

[11] = molecular target: T1, Cry j 1 (pCj1) peptide on …; assay: activation reporter or marker
[12] = molecular target: T2, Cry j 1 (NF-pCj1, NF[WT]-pCj1) peptide …; assay: Kd or kinetics

NF[S(P–2)E/K(P–3)E]-pCj1: double mutation of Ser(–2) and Lys(–3) to Glu in a 13-residue Cry j 1 peptide (NF-pCj1) (DEEMKVTVAFNQF)
effect of NF mutation on T-cell activation / IL-2 production (in words) ([1]; vs WT NF-pCj1, HLA-DP5-mDC1s, 18 h): dramatically reduced

TCR(SU3–3)^ec αβ molecule (extracellular regions of the TCR(SU3–3) α chain, residues 1–209, and β chain, residues 1–245, with an artificial interchain disulfide bond) (from UniProt A0A0A6YYJ7)
Kd [2]: 92.5 µM
Kd [3]: 90.1 µM

DKSMKVTVAFNQF [NF-pCj1]
IL-2 production by TCR-TG40 cells (in words) ([1]; HLA-DP5-expressing mDC1s pulsed 3 h, coculture 18 h, peptide 7 µg ml^−1 (Fig. 5A), 0.5–15 µg ml^−1 (Fig. 5B, C)): produced IL-2 in response to NF-pCj1
proliferative response of T-cell clones (in words) [4]: proliferated in response to NF-pCj1
cytokine production on stimulation (in words) [5]: produced IL-5, IL-10, and IL-13
response of TCR-transfected TG40 cells by CD137^+ cell number (in words) [6]: responded to NF-pCj1
CD4^+ T-cell proliferation and clone establishment (in words) (CD4^+ T cells): many CD4^+ T cells proliferating

DKSMKVTVAFNQF-GPN-EG2-TAMRA [NF-pCj1–TAMRA]
amount of surface-displayed peptide per cell versus concentration (in words) ([7]; Alexa 647-labeled anti-TAMRA antibody MFI, 0.25–4 μM): nearly proportional to the peptide concentration in the range of 0.25–4 μM
uptake versus concentration in the medium (in words) [8]: proportional to its concentration in the medium

DEEMKVTVAFNQF-GPN-EG2-TAMRA
effect of NF mutations on amount of cell-surface displayed peptide (in words) ([7]; 1 μM, same peptide dose and HLA-DP5 surface expression, Alexa647 MFI): halved the amounts of the cell-surface displayed peptide

KVTVAFNQF [pCj1]
CD4^+ T-cell proliferation and clone establishment (in words) (CD4^+ T cells): some proliferation; also recorded: it was impossible to maintain the cell growth required to establish HLA-DP5-restricted CD4^+ T-cell clones

B1: TCR(NM-4) (TCR)
alpha TRAV16*01 TRAJ48*01 CDR3: CALRSNFGNEKLTF
beta TRBV5-1*01 TRBJ2-2*01 CDR3: CASSLVVAGVYTGELFF
binding result [9]: no recognition
binding result [10]: recognises

B2: TCR(NM-7) (TCR)
alpha TRAV12-3*01 TRAJ27*01 CDR3: CGANAGKSTF
beta TRBV30*01 TRBJ2-7*01 CDR3: CAWSVMVWGSEGEQYF
binding result [11]: no recognition
binding result [10]: recognises

B3: TCR(SU3–3) (TCR)
alpha TRAV8-3*01 TRAJ34*01 CDR3: CAVAPTYNTDKLIF
beta TRBV7-9*03 TRBJ2-2*01 CDR3: CASSSKGGAGELFF
binding result [12]: recognises
